From US20210220340A1, “COMPOSITION FOR PREVENTION OR TREATMENT OF NEURODEGENERATIVE DISEASE” (THE ASAN FOUNDATION, priority 2018, published 2021)

What was measured:
GFP-tagged mHttQ protein = assay: GFP-mHttQ aggregation (GFP antibody); format: cell-based; details: cells injected with GFP-tagged mHttQ protein, AMX
Method: A GFP-tagged mHttQ protein was injected into cells, thereby confirming a pharmacological reaction mediated by AMX using a GFP antibody. The accumulation of mHttQ in cells through aggregation was confirmed by GFP expression.

5×FAD mice = assay: Morris water maze test (hidden platform test and probe test) in Alzheimer's disease animal model; format: in vivo, mouse
Method: To confirm whether amlexanox (AMX; Z007) is effective even for animal models, an experiment was conducted using 5×FAD mice, which is one of the Alzheimer-type dementia animal models. Here, the 5×FAD mice, which is one of the Alzheimer-type dementia animal models, were provided in Korea and used.
Drug administration and behavioral evaluation were conducted on the same schedule as in FIG. […] Immediately after the end of the administration, a Morris water maze test, which is a behavioral experiment that can evaluate memory and learning ability, was conducted.
The Morris water maze test was performed as described in Behay. Brain Res. (155, 185-196) (refer to Behay. Brain Res., 155, 185-196). A water tank used in the water maze test is a cylindrical tank with a diameter of 90 cm and a height of 60 cm, and filled with water in which milk powder is diluted at 23±2[…] during a test period. In the tank, a transparent platform was installed 1 cm below the water surface, and four signs were placed outside the tank. The motion trajectory of a mouse was analyzed through a video tracking system (Smart3.0, Panlab, USA).
During the trial period, the mice were placed into the water tank at four randomly selected starting points toward the side where the platform was not shown. In each trial, an escape latency, which is the time to find the platform after the mouse is put into the water tank, was recorded, and when finding the platform, the mouse was allowed to stay on the platform for 10 seconds and then moved to a home cage. […] Each trial was performed four times a day for 5 days.
A probe test was conducted on the last […] of the test. After the platform was removed, the test was performed by allowing a mouse to swim in a water tank for 60 seconds and recording the time to first enter the location of the platform and how many times the mouse passed the location.

G93A SOD-1 mice = assay: Survival rate and motor behaviour in Lou Gehrig's disease animal model; format: in vivo, mouse
Text: G93A SOD-1 mice in which a mutant protein of the ALS-related gene SOD-1 (the expression of an amino acid at codon 93, in which glycine is substituted with alanine) of a human were used as Lou Gehrig's disease animal models. The G93A SOD-1 mice were purchased by the Jackson Laboratory (USA).
In the animal models of Lou Gehrig's disease, spinal motor neuron death occurs, causing limb paralysis at one or both sides. The clinical scoring system was differentiated using the following neurological scoring system.
The mice were euthanized at 0 points (Weydt et al. 2003). In the Lou Gehrig's disease animal models, which is one of the neurodegenerative disease models, a vehicle or amlexanox (AMX) was intraperitoneally administered at 2.5 mg/kg once daily for 5 days, and then a survival rate was measured through a behavioral experiment.
The behavioral experiment was performed on each of the AMX-administered group and the control (Veh) once or twice a week before symptoms occur until death. A method of gradually increasing a speed from 4 rpm to 40 rpm and a method of exercising at a constant speed of 15 rpm for 10 minutes were selected. The time to fall off from a rod was recorded to analyze the difference between the AMX-administered group and the control group.
Changes in survival rate were confirmed by intraperitoneal injection into G93A-SOD mice daily at various AMX concentrations.

[1] = 1 mg/kg and 2.5 mg/kg intraperitoneal, compared with Veh group
[2] = G93A-SOD mice, AMX at various concentrations, compared with untreated control

## CC(C)c1ccc2oc3nc(N)c(C(=O)O)cc3c(=O)c2c1 [amlexanox, 2-amino-7-isopropyl-5-oxo-5H-[1]benzopyrano[2,3-b] pyridine-3-carboxylic acid]
GFP-tagged mHttQ protein
  GFP expression (aggregated GFP-mHttQ protein): decrease
5×FAD mice; [1]
  number of passing the target point: increases
  time to find the target point: increase
5×FAD mice; AMX-administered
  memory and learning ability: improved
G93A SOD-1 mice; G93A SOD-1 mice, 2.5 mg/kg intraperitoneal once daily 5 days a week from week 10
  survival rate: 130.2 ± 2.0 days
G93A SOD-1 mice; [2]
  onset of ataxia: slower
  progression of ataxia: reduced
G93A SOD-1 mice; G93A-SOD mice, daily intraperitoneal injection at various AMX concentrations, compared with Veh group
  survival rate: concentration-dependently increased
